Like-named read-outs stand apart in the source and are kept apart here.
Key:
Ctenocephalides felis = Ctenocephalides felis oral test; format: in vivo; settings: 100 ppm in citrated cattle blood, adult cat fleas, after 2 days
Experimental: Ctenocephalides felis—Oral Test
(§1) Solvent: dimethyl sulphoxide
To produce a suitable active compound preparation, 10 mg of active compound are mixed with 0.5 ml of dimethyl sulphoxide. Dilution with citrated cattle blood gives the desired concentration.
About 20 unfed adult cat fleas (Ctenocephalides felis) are placed into a chamber which is closed at the top and bottom with gauze. A metal cylinder whose bottom end is closed with parafilm is placed onto the chamber. The cylinder contains the blood/active compound preparation, which can be imbibed by the fleas through the parafilm membrane.
After 2 days, the kill in % is determined. 100% means that all of the fleas have been killed; 0% means that none of the fleas have been killed.

Lucilia cuprina = Lucilia cuprina test; format: in vivo; settings: 100 ppm, L1 larvae, after 2 days
Experimental: as §1
To produce a suitable active compound preparation, 10 mg of active compound are mixed with 0.5 ml of dimethyl sulphoxide, and the concentrate is diluted with water to the desired concentration.
About 20 L1 larvae of the Australian sheep blowfly (Lucilia cuprina) are transferred into a test vessel containing minced horsemeat and the active compound preparation of the desired concentration.
After 2 days, the kill in % is determined. 100% means that all the larvae have been killed; 0% means that no larvae have been killed.

Myzus persicae = Myzus persicae spray test (Chinese cabbage leaf discs); format: in vivo; settings: after 6 days
Experimental: Myzus persicae—Spray Test
Solvent: 78 parts by weight of acetone • • 1.5 parts by weight of dimethylformamide
(§2) Emulsifier: alkylaryl polyglycol ether
(§3) To produce a suitable active compound preparation, 1 part by weight of active compound is dissolved with the stated parts by weight of solvent and made up with water containing an emulsifier concentration of 1000 ppm until the desired concentration is attained. To produce further test concentrations, the preparation is diluted with emulsifier-containing water.
Discs of Chinese cabbage leaves (Brassica pekinensis) infested by all stages of the green peach aphid (Myzus persicae) are sprayed with an active compound preparation of the desired concentration.
After 6 days, the efficacy in % is determined. 100% means that all the aphids have been killed; 0% means that no aphids have been killed.

Phaedon cochleariae = Phaedon cochleariae spray test; format: in vivo; settings: 500 g/ha, larvae on Chinese cabbage leaf discs, after 7 days
Experimental: Phaedon cochleariae—Spray Test
(§4) Solvent: 78.0 parts by weight of acetone • • 1.5 parts by weight of dimethylformamide
as §2, §3
After 7 days, the efficacy in % is determined. 100% means that all the beetle larvae have been killed; 0% means that no beetle larvae have been killed.

Tetranychus urticae = Tetranychus urticae spray test, OP-resistant; format: in vivo; settings: 500 g/ha, bean leaf discs, after 6 days
Experimental: Tetranychus urticae—Spray Test, OP-Resistant
as §4, §2, §3
Discs of bean leaves (Phaseolus vulgaris) infested with all stages of the greenhouse red spider mite (Tetranychus urticae) are sprayed with an active compound preparation of the desired concentration.
After 6 days, the efficacy in % is determined. 100% means that all the spider mites have been killed; 0% means that no spider mites have been killed.

[1] = log P determination by HPLC on reversed-phase C18 columns (OECD Guideline 117); format: physicochemical
Experimental: The log P values were determined in accordance with OECD Guideline 117 (EC Directive 92/69/EEC) by HPLC (high-performance liquid chromatography) using reversed-phase (RP) columns (C18), by the following methods:
[a] The LC-MS determination in the acidic range is effected at pH 2.7 with 0.1% aqueous formic acid and acetonitrile (contains 0.1% formic acid) as eluents; linear gradient from 10% acetonitrile to 95% acetonitrile.
[b] LC-MS determination in the neutral range is effected at pH 7.8 with 0.001 molar aqueous ammonium hydrogencarbonate solution and acetonitrile as eluents; linear gradient from 10% acetonitrile to 95% acetonitrile.

[2] = reversed-phase C18 HPLC column, acidic range, pH 2.7, 0.1% aqueous formic acid / acetonitrile, read-out: logP value (HCOOH)
[3] = reversed-phase C18 HPLC column, neutral range, pH 7.8, 0.001 molar aqueous ammonium hydrogencarbonate / acetonitrile, read-out: LogP value (neutral)

For `N#C/N=c1\ccccn1-c1ccc(C(F)(F)F)nc1` [Example 1, [1-[6-Trifluoromethylpyridin-3-yl]-2(1H)-pyridinylidene]cyanamide], the “efficacy (kill)” value (Ctenocephalides felis) was 95%, the “efficacy (kill)” value (Lucilia cuprina) was 100% and the efficacy (Myzus persicae; 500 g/ha) was 100%. The efficacy (Phaedon cochleariae) was 100% and the efficacy (Tetranychus urticae) was 100%.

`N#C/N=c1\ccccn1-c1ccc(Br)nc1` [Example 2, [1-[6-Bromopyridin-3-yl]-2(1H)-pyridinylidene]cyanamide] gave a chromatographic logP [1, 2] of 1.07 and an efficacy (Myzus persicae; 100 g/ha) of 90%.

`Cc1ccc(-n2cccc/c2=N\C#N)cn1` [Example 3, [1-[6-Methylpyridin-3-yl]-2(1H)-pyridinylidene]cyanamide] showed a chromatographic logP [1, 2] of 0.46, an efficacy (Myzus persicae; 100 g/ha) of 90% and an efficacy (Phaedon cochleariae) of 100%.

For `O=C(/C=C1\C=CC=CN1c1ccc(C(F)(F)F)nc1)C(F)(F)F` [Example 4, (3E)-3-[1-(6-Trifluoromethyl-3-pyridinyl)-2(1H)-pyridinylidene]-1,1,1-trifluoro-2-propanone], the chromatographic logP [1, 2] was 2.2, the “efficacy (kill)” value (Lucilia cuprina) was 100% and the efficacy (Myzus persicae; 500 g/ha) was 90%.

For `O=C(/N=c1\ccccn1-c1ccc(C(F)(F)F)nc1)C(F)(F)F` [Example 7], the chromatographic logP [1, 2] was 2.19, the “efficacy (kill)” value (Lucilia cuprina) was 95% and the efficacy (Myzus persicae; 500 g/ha) was 100%.

`N#C/N=c1\ccccn1-c1ccc(F)nc1` [Example 8, [1-[6-Fluoropyridin-3-yl]-2(1H)-pyridinylidene]cyanamide] showed a chromatographic logP [1, 2] of 0.7, an efficacy (Myzus persicae; 500 g/ha) of 90% and an efficacy (Phaedon cochleariae) of 100%.

For `N#C/N=c1\ccccn1-c1ccc(-n2cnc(Cl)n2)nc1` [Example 24, [1-[6-(3-Chloro-1,2,4-triazol-1-yl)pyridin-3-yl]-2-(1H)-pyridinylidene]cyanamide], the chromatographic logP [1, 3] was 1.39.

For `O=c1ccccn1-c1ccc(C(F)(F)F)nc1` [IV-1, 6′-Trifluoromethyl-[1(2H),3′-bipyridin]-2-one], the chromatographic logP [1, 2] was 1.26.

Compound `O=c1ccccn1-c1ccc(Br)nc1` [IV-2, 6′-Bromo-[1(2H), 3′-bipyridin]-2-one] has a chromatographic logP [1, 2] of 0.95.

`N#Cc1cccn(-c2ccc(Cl)nc2)c1=O` [IV-4, 1,2-Dihydro-2-oxo-1-(6-chloropyridin-3-yl)-3-pyridinecarbonitrile] showed a chromatographic logP [1, 2] of 1.

`O=c1ccccn1-c1ccc(Cl)nc1` [IV-14, 6′-chloro-[1(2H),3′-bipyridin]-2-one] gave a chromatographic logP [1, 2] of 0.67.

`O=c1ccccn1-c1ccc(-n2cnc(Cl)n2)nc1` [IV-29, 6′-(3-Chloro-1,2,4-triazol-1-yl)-[1(2H), 3′-bipyridin]-2-one] gave a chromatographic logP [1, 2] of 1.23.

In the case of `O=c1ccccn1-c1ccc(C(F)(F)C(F)(F)C(F)(F)F)nc1` [IV-31, 6′-Heptafluoropropyl-[1(2H),3′-bipyridin]-2-one], the chromatographic logP ([1]; acidic range, pH 2.7, 0.1% aqueous formic acid / acetonitrile, read-out: logP value (HCOOH)) is reported as 2.26.

`O=c1ccccn1-c1ccc(C(F)(C(F)(F)F)C(F)(F)F)nc1` [IV-32, 6′-(1,1,1,2,3,3,3-Heptafluoropropyl)-[1(2H), 3′-bipyridin]-2-one] gave a chromatographic logP [1, 2] of 2.4.

`O=c1ccccn1-c1ccc(C(F)(F)C(F)(F)F)nc1` [IV-33, 6′-Pentafluoroethyl-[1(2H), 3′-bipyridin]-2-one] showed a chromatographic logP [1, 2] of 1.94.

`Cc1ccc(-n2ccccc2=S)cn1` [VI-1, 6′-Methyl-[1(2H),3′-bipyridine]-2-thione] showed a chromatographic logP [1, 2] of 0.51.

Compound `FC(F)(F)c1ccc(-n2ccccc2=S)cn1` [VI-2, 6′-trifluoromethyl-[1(2H),3′-bipyridine]-2-thione] has a chromatographic logP [1, 2] of 1.7.

`S=c1ccccn1-c1ccc(-n2cnc(Cl)n2)nc1` [VI-5, 6′-(3-Chloro-1,2,4-triazol-1-yl)-[1(2H), 3′-bipyridine]-2-thione] showed a chromatographic logP [1, 3] of 1.58.

In the case of “[1-[[6-(3-Trifluoromethylpyrazol-1-yl)pyridin-3-yl]-2-(1H)-pyridinylidene]cyanamide [Example 25]”, the “LogP value (neutral)” value ([1]; pH 7.8) is reported as 2.23.

From patent US10239859B2, “Nitrogen-containing heterocycles as pesticides” (Bayer CropScience Aktiengesellschaft, priority 2015, dated 2019)
